Experiment [1] has as its target neuraminidase of avian influenza virus (H9N2) (Influenza A virus, UniProt A9LRT3). Put plainly: biochemical. More on the design: species or system avian influenza virus A/chicken/Korea/01310/2001(H9N2).
The target in experiment [2] is neuraminidase of novel influenza virus (Influenza A virus, UniProt C3W5S3). It counts as biochemical, novel influenza (H1N1) virus.
The subject of a further experiment is neuraminidase. It counts as biochemical.
Experiment [3] has as its target neuraminidase of swine influenza virus (H1N1) (Influenza A virus, UniProt Q20F35). It counts as biochemical, swine influenza virus A/Sw/Kor/CAN1/04 (H1N1).
Setting [4] is: IC50 for neuraminidase of avian influenza virus (H9N2).

Structures are written as SMILES. Entries after “also recorded” stand apart in the source; their conditions may differ. A value given as a limit tells only on which side of the number the result lay.

`COc1c(C)c(O)c2c(c1C)OC(c1ccccc1)CC2=O` (centres unmarked) [Compound 6, 5-hydroxy-7-methoxy-6,8-dimethylflavanone] came in with an IC50 in experiment [1] (setting [4]) greater than 503000 nM. Take `CCOC(=O)C1=C[C@@H](OC(CC)CC)[C@H](NC(C)=O)[C@@H](N)C1` [Tamiflu, oseltamivir phosphate, reference compound]: the IC50 in experiment [1] (setting [4]) was 13.6 nM; in experiment [1] (IC50 of Tamiflu against neuraminidase of avian influenza virus in combination with compound 4), 1.47 nM.

For `COc1c(C)c(O)c(C)c(O)c1C(=O)/C=C/c1ccccc1` [Compound 5, 2′,4′-dihydroxy-6′-methoxy-3′,5′-dimethylchalcone], the “Inhibitory activity against neuraminidase of novel influenza virus, in words” value (shortened to “Inhibitory activity”) in experiment [2] is “excellent inhibitory activity”. Also, the “Type of inhibition from Lineweaver Burk plots” value (“Type of inhibition” for short) in the experiment on neuraminidase is “non-competitive inhibitor”. On to `COc1cc(O)c(C)c(O)c1C(=O)/C=C/c1ccccc1` [Compound 8, 2′,4′-dihydroxy-3′-methyl-6′-methoxychalcone], for which the “Inhibitory activity” value in experiment [2] is on record as “excellent inhibitory activity”. Further, the “Type of inhibition” value in the experiment with neuraminidase is on record as “non-competitive inhibitor”. `COc1cc(O)c(C)c2c1C(=O)CC(c1ccccc1)O2` (centres unmarked) [Compound 11, 7-hydroxy-5-methoxy-8-methylflavanone] registered an IC50 in experiment [1] (setting [4]) greater than 528000 nM. For the molecule `COc1c(C)c(O)c(C)c(O)c1C(=O)/C=C/c1ccc(O)cc1` [Compound 4, 4,2′,4′-trihydroxy-6′-methoxy-3′,5′-dimethylchalcone], the “Inhibitory mechanism against neuraminidase of swine influenza virus” value in experiment [3] is “non-competitive inhibitor that reversibly inhibits; also recorded: noncompetitive inhibitor”. Moreover, the “Inhibitory activity” value in experiment [2] is recorded as “excellent inhibitory activity”. Further, in the experiment on neuraminidase, the “Type of inhibition” value is “non-competitive inhibitor”. Take `Cc1c(O)cc(O)c2c1OC(c1ccccc1)CC2=O` (centres unmarked) [Compound 12, 8-methylpinocembrin]: the half-inhibitory concentration (IC50) in experiment [1] (setting [4]) was greater than 555000 nM.

Regarding `COc1c(C)c(O)c(C)c(O)c1C(=O)/C=C/c1ccccc1O` [Compound 14, 2,2′,4′-trihydroxy-6′-methoxy-3′,5′-dimethylchalcone], the “Inhibitory activity” value in experiment [2] is recorded as “excellent inhibitory activity”. Moreover, the “Type of inhibition” value in the experiment with neuraminidase was “non-competitive inhibitor”.

Values taken from patent US20120046353A1 (priority 2010, published 2012).
